The source made the active and inactive calls. The rule behind the calls is not given here.
What was measured:
SH-SY5Y [1] = test: Neuroprotective activity against TBHP-induced human SH-SY5Y cells assessed as decrease in ROS production at 0.001 to 10 uM after 6 hrs by DCFH-DA dye based spectrophotometric assay relative to control; assay type: functional; design: scale not given: the % may be the effect or the level left; conditions: dose 0.001-10 µM
SH-SY5Y [2] = test: Neuroprotective activity against TBHP-induced cytotoxicity in human SH-SY5Y cells assessed as increase in cell viability at 10 uM after 6 hrs by MTT assay; assay type: functional, cell-based
BV-2 [3] = test: Cytotoxicity against mouse BV-2 cells assessed as reduction in cell viability at 0.001 to 10 uM after 24 hrs by MTT assay; assay type: cell-based; conditions: bv-2, 24 h, dose 0.001-10 µM
SH-SY5Y [4] = test: Cytotoxicity against human SH-SY5Y cells assessed as reduction in cell viability at 0.001 to 10 uM after 24 hrs by MTT assay; assay type: cell-based; conditions: dose 0.001-10 µM
SH-SY5Y [5] = test: Neuroprotective activity against TBHP-induced cytotoxicity in human SH-SY5Y cells assessed as increase in cell viability at 0.001 uM after 6 hrs by MTT assay; assay type: functional, cell-based
SH-SY5Y [6] = test: Neuroprotective activity against TBHP-induced human SH-SY5Y cells assessed as decrease in ROS production at 1 uM after 6 hrs by DCFH-DA dye based spectrophotometric assay relative to control; assay type: functional; design: scale not given: the % may be the effect or the level left
BV-2 [7] = test: Inhibition of LPS-induced NO production in mouse BV-2 cells at 0.1 to 1 uM preincubated for 1 hrs followed by LPS-stimulation and measured after 24 hrs by Griess reagent based spectrophotometric assay; assay type: functional, cell-based; conditions: dose 0.1-1 µM

Nc1nc([C@H]2[C@H](CNC(=O)c3cc(Br)c(Br)[nH]3)/C(=C\CNC(=O)c3ccc[nH]3)c3cnc(N)n32)c[nH]1
Activity (SH-SY5Y [1]): 35%
Activity (SH-SY5Y [2]): Active
Activity (BV-2 [3]): Non-Toxic
Activity (SH-SY5Y [4]): Non-Toxic

C[C@]1(COC(=O)c2cc(Br)c[nH]2)C[C@@H](C(=O)O)N=CN1 [MANZACIDIN A]
Activity (SH-SY5Y [5]): Active
Activity (SH-SY5Y [6]): >25%
Activity (BV-2 [3]): Non-Toxic
Activity (SH-SY5Y [4]): Non-Toxic

NC1=N[C@]2([C@H](O)N1)[C@@H](Cl)[C@H](CNC(=O)c1cc(Br)c(Br)[nH]1)[C@H]1CN3C(=O)c4[nH]ccc4[C@@H]4N=C(N)N[C@@]43[C@@H]12.O=C(O)C(F)(F)F.O=C(O)C(F)(F)F
Activity (BV-2 [3]): Non-Toxic
Activity (SH-SY5Y [4]): Non-Toxic

Nc1nc(/C=C/CNC(=O)c2cc(Br)c[nH]2)c[nH]1
inhibition (BV-2 [7]): Active
Activity (SH-SY5Y [5]): Active
Activity (SH-SY5Y [6]): >25%
Activity (BV-2 [3]): Non-Toxic
Activity (SH-SY5Y [4]): Non-Toxic

Nc1ncc(/C=C/CNC(=O)c2cc(Br)c(Br)[nH]2)[nH]1 [OROIDIN]
Activity (SH-SY5Y [5]): Active
Activity (BV-2 [3]): Non-Toxic
Activity (SH-SY5Y [4]): Non-Toxic

NC1=N[C@]2([C@H](O)N1)[C@@H](Cl)[C@H](CNC(=O)c1cc(Br)c(Br)[nH]1)[C@H]1CN3C(=O)c4cccn4[C@@H]4N=C(N)N[C@@]43[C@@H]12.O=C(O)C(F)(F)F.O=C(O)C(F)(F)F
Activity (SH-SY5Y [1]): 35%
inhibition (BV-2 [7]): Active
Activity (BV-2 [3]): Non-Toxic
Activity (SH-SY5Y [4]): Non-Toxic

Reference: ChEMBL document CHEMBL4673228, “Futunamine, a Pyrrole-Imidazole Alkaloid from the Sponge Stylissa aff. carteri Collected off the Futuna Islands” (J Nat Prod, 2020)
